From the NIST ThermoML archive (doi:10.1016/j.jct.2008.01.010)
“And” between values parts separate entries of the source, which are not always exact repeats. Equal values may be shown once.

Settings: Crystal; for mass density: 298.15 K, 101.33 kPa, Pycnometric method; for vapor or sublimation pressure: Calculated from knudsen effusion weight loss

Oc1nncc2ccccc12 [1(2H)-phthalazinone]
Settings | mass density [kg/m3] | vapor or sublimation pressure
– | 1290 | –
348.12 K | – | 0.0001427 kPa and 0.0001428 kPa and 0.0001398 kPa
350.14 K | – | 0.0001731 kPa and 0.0001683 kPa and 0.0001668 kPa
352.15 K | – | 0.0002116 kPa and 0.0002079 kPa
354.18 K | – | 0.0002587 kPa and 0.0002577 kPa and 0.0002582 kPa
356.2 K | – | 0.0003206 kPa and 0.0003187 kPa and 0.0003134 kPa
358.15 K | – | 0.0003799 kPa and 0.0003853 kPa and 0.0003771 kPa
360.2 K | – | 0.0004783 kPa and 0.0004761 kPa and 0.0004538 kPa
362.14 K | – | 0.0005802 kPa and 0.0005665 kPa and 0.0005564 kPa
364.18 K | – | 0.0006992 kPa and 0.0006815 kPa and 0.000676 kPa
366.14 K | – | 0.0008356 kPa and 0.0008316 kPa and 0.000817 kPa
368.13 K | – | 0.0009681 kPa and 0.001004 kPa and 0.0009903 kPa

O=c1[nH][nH]c(=O)c2ccccc12 [2,3-dihydro-1,4-phthalazinedione]
Settings | mass density [kg/m3] | vapor or sublimation pressure
– | 1390 | –
428.18 K | – | 0.0001501 kPa and 0.00015 kPa and 0.0001468 kPa
430.16 K | – | 0.0001786 kPa and 0.0001816 kPa and 0.0001711 kPa
432.24 K | – | 0.0002109 kPa and 0.000215 kPa and 0.0002114 kPa
434.18 K | – | 0.0002433 kPa and 0.0002441 kPa
436.19 K | – | 0.0002898 kPa and 0.000293 kPa and 0.0002878 kPa
438.26 K | – | 0.0003477 kPa and 0.0003523 kPa and 0.0003443 kPa
440.19 K | – | 0.0004064 kPa and 0.0003929 kPa
442.17 K | – | 0.000473 kPa and 0.000486 kPa
444.26 K | – | 0.0005785 kPa and 0.0005761 kPa
446.19 K | – | 0.0006629 kPa and 0.0006749 kPa and 0.0006616 kPa
448.22 K | – | 0.0007985 kPa and 0.0007997 kPa and 0.0007669 kPa
450.28 K | – | 0.0009283 kPa and 0.0009382 kPa
